According to paper PMC7467771, “Lipophilic Arginine Esters: The Gateway to Preservatives without Side Effects” (Molecular Pharmaceutics, 2020):

Assay: octanol/water partition coefficient (log P) by TNBS assay
Format: physicochemical
Conditions: octanol/water mixture 1:1 v/v; mean, n = 3
Method: Log P of Arg and both Arg-esters were determined using an already described method.[15] Each compound was dissolved in an octanol/water mixture (1:1, v/v). Afterward, octanol and water phases were separated by a high-speed mini centrifuge (Fisher Scientific, Illinois USA), and the concentration of each compound in each phase was determined by the TNBS assay. For this, a 50 μL volume from each phase was diluted 10 times with 0.1 M sodium bicarbonate (pH 8.5) containing 40% (v/v) isopropyl alcohol. After dilution, 250 μL of the TNBS reagent (0.01%, v/v) prepared in 0.1 M sodium bicarbonate (pH 8.5) was added to each sample that was incubated at 37 °C. After 2 h, the reaction was stopped by adding 250 μL of 10% (m/v) SDS and 125 μL of 1 M HCl. The absorbance of each sample was measured at 335 nm using a Spark multifunctional microplate reader (Tecan Austria, GmbH). The logarithm of the octanol/water absorbance ratio was expressed as log P for each sample.

Row | SMILES | logP
1 | CCCCCCCCCCCCC(CCCCCCCCCC)COC(=O)[C@@H](N)CCCNC(=N)N.O=C(O)C(F)(F)F (some centres unmarked) [Arg-DT, 2-Decyltetradecyl Argininate Trifluoroacetate] | 0.6
2 | CCCCCCCCC=CCCCCCCCCOC(=O)[C@@H](N)CCCNC(=N)N.O=C(O)C(F)(F)F [Arg-OL, Octadec-9-en-1-yl Argininate Trifluoroacetate] | 0.3
